Results from US10450326B2, “Thiazolopyrimidinone compounds and preparation methods and use thereof” (PEKING UNIVERSITY, priority 2015, dated 2019).

Biological target: T1, α7 nAChR (Homo sapiens, UniProt P36544)
T1 construct: expressed in transfected cells; host or cells: Xenopus oocytes (cRNA injection)
Experiment: α7 nAChR positive allosteric modulator activity assay, voltage clamp in Xenopus oocytes with 100 μM ACh
Format: cell-based
Details: for activity at 10 µM: at 10 μM compound, current induced by 100 μM ACh, Xenopus oocytes expressing α7 nAChR, read-out: Max Mod (%, at 10 μM); for EC50: potentiation of current induced by 100 μM ACh, Hill equation fit
Experimental: The experimental process was as follows:
(1) Xenopus oocytes were injected with cRNA encoding α7 nAChR in order to express α7 nAChR on the cell membrane successfully;
(2) 100 μM ACh alone was added, and the α7 nAChR characteristic current caused by it was recorded as a control;
(5) The oocytes were incubated for 1 min with 10 μM compound, then 10 µM compound and 100 μM ACh were added simultaneously and the current induced by ACh was recorded at this time;
(6) The differences between the two currents in terms of peak intensity and duration were compared, with the ratio of peak intensity of the two currents representing the adjustment effect (Enhance Rate), in order to determine whether the compound had PAM activity, if the activity was good, then the subsequent test was carried out;
(7) Concentration gradient was set and the effects of compounds at different concentrations on the α7 nAChR characteristic current induced by 100 μM ACh were evaluated. Several determinations were carried out at the same concentration, and the results were presented in the form of “mean±standard deviation”;
(8) The EC50 (median maximum effect concentration) values and Max mod (the current amplitude caused by the maximal degree of adjustable endogenous agonist acetylcholine) values of the compounds and other activity data were obtained by Hill equation Inormalized=Emax/(1+(EC50/C)nH).
The amplitude of the peak current is only normalized by the amplitude produced by 100 μM ACh and different concentrations of LD486. […] It can be seen from FIG. 3 that the Hill equation is used to fit the dose-response curve and calculate the kinetic parameters.

T1 sequence (P36544 23-502): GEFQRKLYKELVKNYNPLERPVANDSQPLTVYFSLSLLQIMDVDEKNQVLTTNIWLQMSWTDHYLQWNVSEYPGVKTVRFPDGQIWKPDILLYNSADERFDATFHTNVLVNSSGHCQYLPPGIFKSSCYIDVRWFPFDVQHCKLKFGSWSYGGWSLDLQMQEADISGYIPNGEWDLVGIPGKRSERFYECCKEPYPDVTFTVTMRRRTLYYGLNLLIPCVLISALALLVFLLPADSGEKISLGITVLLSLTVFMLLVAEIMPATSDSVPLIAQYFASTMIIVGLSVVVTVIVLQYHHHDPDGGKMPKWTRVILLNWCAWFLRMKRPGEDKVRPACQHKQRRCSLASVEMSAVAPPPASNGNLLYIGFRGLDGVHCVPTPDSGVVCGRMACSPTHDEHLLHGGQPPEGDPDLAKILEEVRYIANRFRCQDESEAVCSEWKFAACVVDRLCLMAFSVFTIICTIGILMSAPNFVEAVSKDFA

Structure (SMILES) | activity at 10 µM [%] | EC50 [µM]
Cc1ccc(Nc2nc3ncn(-c4c(C)cccc4F)c(=O)c3s2)cc1F [JWX-A-C0111, 6-(2-fluoro-6-methylphenyl)-2-((3-fluoro-4-methylphenyl)amino)thiazolo[4,5-d]pyrimidin-7(6H)-one] | 110 | –
Cc1ccc(-n2cnc3nc(Nc4ccc(C)c(F)c4)sc3c2=O)c(Cl)c1 [JWX-A-C0229, 6-(2-Chloro-4-methylphenyl)-2-((3-fluoro-4-methylphenyl)amino)thiazolo[4,5-d]pyrimidin-7(6H)-one] | 110 | –
Cc1cccc(Cl)c1-n1cnc2nc(NC(=O)c3ccc(Cl)cc3)sc2c1=O [JWX-A-C1020, N-(6-(2-Chloro-6-methylphenyl)-7-oxo-6,7-dihydrothiazolo[4,5-d]pyrimidin-2-yl)-4-chlorobenzamide] | 350 | 10
Cc1ccc(Nc2nc3ncn(-c4ccccc4C)c(=O)c3s2)cc1F [JWX-A-C1026, 6-(o-tolyl)-2-((3-fluoro-4-methylphenyl)amino)-thiazolo[4,5-d]pyrimidin-7(6H)-one] | 300 | 10
Cc1cccc(Cl)c1-n1cnc2nc(NC(=O)c3ccc(C(F)(F)F)cc3)sc2c1=O [JWX-A-C1128, N-(6-(2-Chloro-6-methylphenyl)-7-oxo-6,7-dihydrothiazolo[4,5-d]pyrimidin-2-yl)-4-(trifluoromethyl)benzamide] | 200 | 10
Cc1cccc(Cl)c1-n1cnc2nc(NC(=O)c3ccc(OC(F)(F)F)cc3)sc2c1=O [JWX-A-C1205, N-(6-(2-Chloro-6-methylphenyl)-7-oxo-6,7-dihydrothiazolo[4,5-d]pyrimidin-2-yl)-4-(trifluoromethoxy)benzamide] | 980 | 10.8
Cc1cccc(Cl)c1-n1cnc2nc(-c3ccccc3)sc2c1=O [JWX-C1200, 6-(2-Chloro-6-methylphenyl)-2-phenylthiazolo[4,5-d]pyrimidin-7(6H)-one] | 110 | –

Further lines, results first:

activity at 10 µM [%] | EC50 [µM] | Structure (SMILES)
200 | 10 | Cc1ccc(Nc2nc3ncn(-c4c(C)cccc4Br)c(=O)c3s2)cc1F [JWX-A-C0106, 6-(2-Bromo-6-methylphenyl)-2-((3-fluoro-4-methylphenyl)amino)thiazolo[4,5-d]pyrimidin-7(6H)-one]
380 | 10 | Cc1ccc(Nc2nc3ncn(-c4ccccc4Cl)c(=O)c3s2)cc1F [JWX-A-C0831, 6-(2-Chlorophenyl)-2-((3-fluoro-4-methylphenyl)amino)thiazolo[4,5-d]pyrimidin-7(6H)-one]
200 | 10 | Cc1cccc(Cl)c1-n1cnc2nc(Nc3ccc(OC(F)(F)F)cc3)sc2c1=O [JWX-A-C0901, 6-(2-Chloro-6-methylphenyl)-2-((4-(trifluoromethoxy)phenyl)amino)thiazolo[4,5-d]pyrimidin-7(6H)-one]
150 | 10 | Cc1cccc(Cl)c1-n1cnc2nc(Nc3cccc(OC(F)(F)F)c3)sc2c1=O [JWX-A-C0907, 6-(2-Chloro-6-methylphenyl)-2-((3-(trifluoromethoxy)phenyl)amino)thiazolo[4,5-d]pyrimidin-7(6H)-one]
300 | 10 | Cc1cccc(Cl)c1-n1cnc2nc(Nc3ccc(F)c(F)c3)sc2c1=O [JWX-A-C0915, 6-(2-Chloro-6-methylphenyl)-2-((3,4-difluorophenyl)amino)thiazolo[4,5-d]pyrimidin-7(6H)-one]
– | 5.02 | Cc1cc(C)cc(Nc2nc3ncn(-c4c(C)cccc4Cl)c(=O)c3s2)c1 [JWX-A-C1017, 6-(2-Chloro-6-methylphenyl)-2-((3,5-dimethylphenyl)amino)thiazolo[4,5-d]pyrimidin-7(6H)-one]
1000 | 9.8 | Cc1cccc(Cl)c1-n1cnc2nc(NC(=O)c3ccc(Br)cc3)sc2c1=O [JWX-A-C1122, N-(6-(2-chloro-6-methylphenyl)-7-oxo-6,7-dihydrothiazolo[4,5-d]pyrimidin-2-yl)-4-bromobenzamide]
